US20240174618A1, “SUBSTITUTED (2-HETEROARYLOXYPHENYL)SULFONATES, SALTS THEREOF AND THEIR USE AS HERBICIDAL AGENTS” (Bayer Aktiengesellschaft, priority 2021, published 2024)

Legend:
Format in all cases: in vivo
Veronica persica (VERPE) [1] = assay: E. Herbicidal post-emergence efficacy, VERPE
In short: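 Greenhouse post-emergence spray, one-leaf stage (2–3 wk after sowing, sandy loam); WP/EC formulation, aqueous + 0.5% additive, 600 l/ha water; rates 320 g/ha or less. Visual rating ~3 wk later vs untreated; 0% = control-like, 100% = dead.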

[2] = tested on: Matricaria inodora (MATIN); assay: C. Herbicidal pre-emergence efficacy, MATIN; details: scored after about 3 weeks
In short: (§1)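 Pre-emergence test: formulated compounds sprayed as aqueous suspension or emulsion with 0.5% additive at 600 l/ha onto soil covering sown seeds, at rates corresponding to 320 g/ha or less. After about 3 weeks in greenhouse, efficacy scored visually as percent versus untreated controls (100% = plants dead).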

[3] = tested on: Alopecurus myosuroides (ALOMY); assay: B. Herbicidal post-emergence efficacy, ALOMY; details: 1280 g/ha, rated visually after about 3 weeks
Description: Seeds of mono- and dicotyledonous weed plants were placed in plastic pots in sandy loam soil (doubly sown with in each case one species of mono- or dicotyledonous weed plants per pot), covered with soil and cultivated in a greenhouse under controlled growth conditions. 2 to 3 weeks after sowing, the test plants were treated at the one-leaf stage. The compounds of the invention, formulated in the form of wettable powders (WP) or as emulsion concentrates (EC), were applied onto the green parts of the plants as aqueous suspension or emulsion with addition of 0.5% additive at a water application rate of 600 liters per hectare (converted). After the test plants had been kept in the greenhouse under optimum growth conditions for about 3 weeks, the activity of the preparations was rated visually in comparison to untreated controls.
For example, • 100% efficacy=plants have died, • 0% efficacy=like untreated control plants
Tables B1a to B12c below show the effects of selected inventive compounds of the general formula (I) according to table 1 on various harmful plants at an application rate corresponding to 1280 g/ha or less, which were obtained by the experimental procedure mentioned above.

Veronica persica (VERPE) [4] = assay: C. Herbicidal pre-emergence efficacy, VERPE; details: scored after about 3 weeks
In short: as §1

Zea mays (ZEAMX) = assay: F. Post-emergence effect on useful plants, ZEAMX; details: useful plant, application rate 80 g/ha
In short: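 Crop plants grown in sandy loam in the greenhouse were sprayed at the one-leaf stage, 2-3 weeks after sowing, with WP or EC formulations plus 0.5% additive at 600 l/ha water. Damage was scored visually after about 3 weeks against untreated controls (0% = like control, 100% = dead).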

[5] = tested on: Amaranthus retroflexus (AMARE); assay: C. Herbicidal pre-emergence efficacy, AMARE; details: scored after about 3 weeks
In short: as §1

Avena fatua (AVEFA) = assay: C. Herbicidal pre-emergence efficacy, AVEFA; details: 320 g/ha, scored after about 3 weeks
Description: Seeds of monocotyledonous and dicotyledonous weed plants and crop plants were placed in plastic or organic planting pots and covered with soil. The compounds of the invention, formulated in the form of wettable powders (WP) or as emulsion concentrates (EC), were then applied to the surface of the covering soil as aqueous suspension or emulsion with addition of 0.5% additive at a water application rate equivalent to 600 l/ha (converted). After the treatment, the pots were placed in a greenhouse and kept under good growth conditions for the test plants. After about 3 weeks, the efficacy of the preparations was scored visually in comparison with untreated controls as percentages. For example, • 100% efficacy=plants have died, • 0% efficacy=like untreated control plants.
Tables C1a to C14b below show the effects of selected compounds of the general formula (I) according to table 1 on various harmful plants at an application rate corresponding to 320 g/ha or less, which were obtained by the experimental procedure mentioned above.

[6] = tested on: Digitaria sanguinalis (DIGSA); assay: E. Herbicidal post-emergence efficacy, DIGSA
Description: Seeds of monocotyledonous and dicotyledonous weeds and crop plants were placed in sandy loam in plastic or organic planting pots, covered with soil and cultivated in a greenhouse under controlled growth conditions. 2 to 3 weeks after sowing, the test plants were treated at the one-leaf stage. The compounds of the invention, formulated in the form of wettable powders (WP) or as emulsion concentrates (EC), were then sprayed onto the green parts of the plants as aqueous suspension or emulsion with addition of 0.5% additive at a water application rate of 600 l/ha (converted). After the test plants had been kept in the greenhouse under optimum growth conditions for about 3 weeks, the activity of the preparations was rated visually in comparison to untreated controls.
For example, • 100% efficacy=plants have died, • 0% action=like untreated control plants.
Tables E1a to E12b below show the effects of selected compounds of the general formula (I) according to table 1 on various harmful plants at an application rate corresponding to 320 g/ha or less, which were obtained by the experimental procedure mentioned above.

[7] = tested on: Digitaria sanguinalis (DIGSA); assay: B. Herbicidal post-emergence efficacy, DIGSA; details: rated visually after about 3 weeks
In short: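 Weeds grown in sandy loam in greenhouse pots, sprayed at one-leaf stage (2–3 weeks after sowing) with WP or EC formulations as aqueous suspension/emulsion plus 0.5% additive at 600 L/ha water, rates up to 1280 g/ha. Visual efficacy rated about 3 weeks later versus untreated controls (0% = like control, 100% = dead).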

Compound	Post-emergence efficacy against VERPE in % (Veronica persica (VERPE) [1]; application rate 80 g/ha)	Post-emergence efficacy against VERPE in % (Veronica persica (VERPE) [1]; application rate 320 g/ha)	Pre-emergence efficacy against MATIN ([2]; 320 g/ha)	Post-emergence efficacy against ALOMY in % [3]	Pre-emergence efficacy against VERPE (Veronica persica (VERPE) [4]; 320 g/ha)	Post-emergence efficacy against ZEAMX in % (Zea mays (ZEAMX))	Pre-emergence efficacy against AMARE ([5]; 80 g/ha)	Pre-emergence efficacy against AMARE ([5]; 320 g/ha)	Pre-emergence efficacy against AVEFA (Avena fatua (AVEFA))	Post-emergence efficacy against DIGSA in % ([6]; application rate 80 g/ha)	Post-emergence efficacy against DIGSA in % ([6]; application rate 320 g/ha)	Pre-emergence efficacy against VERPE (Veronica persica (VERPE) [4]; 80 g/ha)	Pre-emergence efficacy against MATIN ([2]; 80 g/ha)	Post-emergence efficacy against DIGSA in % ([7]; 320 g/ha)	Post-emergence efficacy against DIGSA in % ([7]; 1280 g/ha)
CCCS(=O)(=O)Oc1ccccc1Oc1ncc(Cl)cn1 [Example I-3]	80%	90%	90%	90%	100%	10%	100%	100%	–	–	–	–	–	–	–
CCCCS(=O)(=O)Oc1ccccc1Oc1ncc(Cl)cn1 [Example I-6]	90%	90%	–	–	90%	–	100%	100%	80%	80%	100%	80%	–	–	–
CC(C)CS(=O)(=O)Oc1ccccc1Oc1ncc(Cl)cn1 [Example I-7, [2-(5-Chloropyrimidin-2-yl)oxyphenyl] 2-methylpropane-1-sulfonate]	90%	100%	–	–	100%	–	100%	100%	90%	90%	100%	90%	–	–	–
O=S(=O)(CCC(F)(F)F)Oc1ccccc1Oc1ncc(Cl)cn1 [Example I-8]	90%	100%	80%	–	100%	–	100%	100%	90%	80%	90%	100%	80%	–	–
O=S(=O)(CCCC(F)(F)F)Oc1ccccc1Oc1ncc(Cl)cn1 [Example I-10]	100%	100%	100%	–	100%	–	100%	100%	90%	90%	90%	100%	90%	–	–
O=S(=O)(CCC(F)(F)F)Oc1c(Cl)cccc1Oc1ncc(Br)cn1 [Example I-32]	100%	100%	80%	90%	100%	20%	100%	100%	–	–	90%	80%	–	90%	100%
O=S(=O)(CCC(F)(F)F)Oc1c(F)cccc1Oc1ncc(Br)cn1 [Example I-40]	100%	100%	80%	–	100%	–	100%	100%	100%	80%	100%	100%	–	90%	90%
